Results reported in patent US20130288895A1, “METHODS AND COMPOSITIONS FOR WEED CONTROL” (priority 2011, published 2013).

Legend:
[1] = test system: Amaranthus palmeri plants (glyphosate-resistant Palmer amaranth, “R-22”); assay: Topical trigger oligonucleotide bioassay with glyphosate on Amaranthus palmeri; assay type: in vivo; parameters: key: relative measure of activity, the tested oligonucleotide was either active, less active, or inactive in the bioassay; relative measure of activity, the tested oligonucleotide was either active, less active, or inactive in the bioassay; relative measure of activity, the tested oligonucleotide was either active, less active, or inactive in the bioassay
[2] = test system: A. palmeri (R-22); assay: Greenhouse test: 2,4-D, glyphosate and trigger polynucleotides; assay type: in vivo; settings: RU Wmax 1.5 lb/A where included, 14 days after treatment
[3] = test system: Corn plants transformed with the CP4 EPSPS gene; assay: CP4 EPSPS dsRNA triggers plus RoundUp Ultra on transgenic glyphosate tolerant corn; settings: trigger 210, 630, 1890 pmol; RoundUp Ultra 1.5 a.e. lb/acre two-three days later; FIG. 2
Procedure: Corn and cotton plants that were transformed with the CP4 EPSPS gene and are resistant to glyphosate were planted in pots in a greenhouse along with negative isolines for each and grown to the first true leaf emergence stage then treated with a trigger solution containing 0.5% Silwet L77, 2% ammonium sulfate, 20 mM Na Phoshpate (pH 6.8) at different rates of trigger amount, 0 picomoles (pmol), 210 pmol, 630 pmol and 1890 pmol. For each replication (8-10 plants), two fully expanded cotyledons were treated by pipette with 50 microliters of trigger solution each, then sprayed two-three days later with 1.5 a.e.lb/acre) of RoundUp™ Ultra (glyphosate, Monsanto, St Louis, Mo.). The cotton and corn plants were scored for stunting and injury 7-16 days after spray treatment.

[4] = 5.2 triggers to A. palmeri EPSPS coding sequence, topical application with Silwet L-77, glyphosate, relative measure of activity
[5] = AS83 triggers to EPSPS promoter of glyphosate resistant A. palmeri, 3′/5′ deletions, mismatch mutations, relative measure of activity
[6] = AS83 made as ssDNA, dsRNA, dsDNA, making Palmer R-22 plant sensitive to glyphosate

| Molecule | Activity [1, 4] | Activity [1, 5] | further results |
| --- | --- | --- | --- |
| GTCATAGCAACATCTGGCATT [5.2-DNA-wt] (GTCATAGCAACATCTGGCATT; DNA, backbone and methylation of C not given here; 5.2-DNA-wt is double-stranded DNA) [Oligo 5.2-DNA-wt, dsDNA 21-mer] | active |  |  |
| CTC TTT GTT TTT CTT CT (CTCTTTGTTTTTCTTCT; DNA, backbone and methylation of C not given here) [AS83-DNA-17-3′D, ssDNA 17-mer] |  | inactive |  |
| CUCUUUGUUUUUCUUCUGCCAAUUU (CUCUUUGUUUUUCUUCUGCCAAUUU; RNA, backbone not given here; further chemistry not fully specified; listed as Amaranthus palmeri) [AS83-RNA-wt-] |  |  | Activity [1, 6]: active |
| GTCATAGCAACATCTGGCATT [Oligo 5.2-RNA-wt] | active |  |  |
| TTG TTT TTC TTC TGC CA (TTGTTTTTCTTCTGCCA; DNA, backbone and methylation of C not given here) [AS83-DNA-17-5′D, ssDNA 17-mer] |  | inactive |  |
| CTCTTTGTTTTTCTTCTGCCAATTT (CTCTTTGTTTTTCTTCTGCCAATTT; chemistry not fully specified) [AS83-DNA-blunt, dsDNA 25-mer] |  |  | Activity [1, 6]: active |
| CTC TTT GTT TTT CTT CTG C (CTCTTTGTTTTTCTTCTGC; DNA, backbone and methylation of C not given here) [AS83-DNA-19-3′D, ssDNA 19-mer] |  | inactive |  |
| GTCATAGCAACATCTGGCATT [5.2-ssDNA-AS] (GTCATAGCAACATCTGGCATT; antisense; DNA, backbone and methylation of C not given here; 5.2-DNA-wt is double-stranded DNA) [Oligo 5.2-ssDNA-AS, ssDNA 21-mer, antisense] | less active |  |  |
| CTCTTTGTTTTTCTTCTGCCAATTT (antisense CTCTTTGTTTTTCTTCTGCCAATTT; DNA, backbone and methylation of C not given here; listed as Amaranthus palmeri) [AS83-DNA-25-wt] |  | active |  |
| TTGTTTTTCTTCTGCCAATT (TTGTTTTTCTTCTGCCAATT; chemistry not given here) [AS83-DNA-20-5′D, ssDNA 20-mer] |  | active |  |
| GTCATAGCAACATCTGGCATT-3′IdT [5.2-RNA-3′IdT] | inactive |  |  |
| TTG TTT TTC TTC TGC CAA T (TTGTTTTTCTTCTGCCAAT; DNA, backbone and methylation of C not given here) [AS83-DNA-19-5′D, ssDNA 19-mer] |  | less active |  |
| TCTTTGTTTTTCTTCTGCCAATTT (TCTTTGTTTTTCTTCTGCCAATTT; chemistry not given here) [AS83-DNA-24-5′D, ssDNA 24-mer] |  | active |  |
| GTCATAGCAACATCTGGCATT-3′ddC [5.2-RNA-3′ddC] | inactive |  |  |
| CTC TTT GTT TTT CTT CTG (CTCTTTGTTTTTCTTCTG; DNA, backbone and methylation of C not given here) [AS83-DNA-18-3′D, ssDNA 18-mer] |  | inactive |  |
| TTGTTTTTCTTCTGCCAATTT (TTGTTTTTCTTCTGCCAATTT; chemistry not given here) [AS83-DNA-21-5′D, ssDNA 21-mer] |  | active |  |
| GTCATAGCAACATCTGGCATT [5.2-sDNA/asRNA] (GTCATAGCAACATCTGGCATT; RNA, backbone and T or U not given here; hybrid: sense DNA strand with antisense RNA strand) [DNA/RNA hybrid 21-mer] | inactive |  |  |
| GTCATAGCAACATCTGGCATT [5.2-asDNA/sRNA] (GTCATAGCAACATCTGGCATT; chemistry not fully specified) [DNA/RNA hybrid 21-mer] | inactive |  |  |

| Molecule | Activity [1, 4] | Activity [1, 5] | further results |
| --- | --- | --- | --- |
| CTCTTTGTTTTTCTTCTGCCAATTT-3′InvdT [AS83-DNA-3′InvdT] |  | inactive |  |
| AATGCCAGATGTTGCTATGAC (AATGCCAGATGTTGCTATGAC; antisense; DNA, backbone and methylation of C not given here; 5.2-DNA-wt is double-stranded DNA) [Oligo 5.2-ssDNA-S, ssDNA 21-mer, sense] | less active |  |  |
| CTCTTTGTTTTTCTTCTGCCAATT (CTCTTTGTTTTTCTTCTGCCAATT; chemistry not given here) [AS83-DNA-24-3′D, ssDNA 24-mer] |  | active |  |
| GTC Aat GCA ACA TCT GGC ATT [Oligo 5.2-RNA-M5] | active |  |  |
| CTCTTTGTTTTTCTTCTGCCAATTT-3′ddC [AS83-DNA-3′ddC] |  | inactive |  |
| ATA GCA ACA TCT GGC ATT [5.2-RNA-5′-18] | inactive |  |  |
| TTTGTTTTTCTTCTGCCAATTT (TTTGTTTTTCTTCTGCCAATTT; chemistry not given here) [AS83-DNA-22-5′D, ssDNA 22-mer] |  | active |  |
| TC ATA GCA ACA TCT GGC ATT [5.2-RNA-5′-20] | active |  |  |
| CTTTGTTTTTCTTCTGCCAATTT (CTTTGTTTTTCTTCTGCCAATTT; chemistry not given here) [AS83-DNA-23-5′D, ssDNA 23-mer] |  | active |  |
| CNC.O=C(O)COc1ccc(Cl)cc1Cl [2,4-D, 2,4D amine (dimethylamine salt)] |  |  | % Control (mean) ([2]; 2,4-D 0.0625 lb/A): 60%; % Control (mean) ([2]; 2,4-D 0.125 lb/A): 80.8% |
| C ATA GCA ACA TCT GGC ATT [5.2-RNA-5′-19] | less active |  |  |
| CTCTTTGTTTTTCTTCTGCCA (CTCTTTGTTTTTCTTCTGCCA; chemistry not given here) [AS83-DNA-21-3′D, ssDNA 21-mer] |  | active |  |
| CTCTTTGTTTTTCTTCTGCCAA (CTCTTTGTTTTTCTTCTGCCAA; chemistry not given here) [AS83-DNA-22-3′D, ssDNA 22-mer] |  | active |  |
| TTG TTT TTC TTC TGC CAA (TTGTTTTTCTTCTGCCAA; DNA, backbone and methylation of C not given here) [AS83-DNA-18-5′D, ssDNA 18-mer] |  | inactive |  |
| CTCTTTGTTTTTCTTCTGCCAAT (CTCTTTGTTTTTCTTCTGCCAAT; chemistry not given here) [AS83-DNA-23-3′D, ssDNA 23-mer] |  | active |  |
| CTCTTTGTTTTTCTTCTGCC (CTCTTTGTTTTTCTTCTGCC; DNA, backbone and methylation of C not given here) [AS83-DNA-20-3′D, ssDNA 20-mer] |  | active |  |
| CP4-12: dsRNA trigger, 82-462 of SEQ ID NO:1 (CP4 EPSPS), a 381 polynucleotide (nucleic acid, listed as Agrobacterium tumefaciens, dsRNA form) DNA: ATCTCCCACCGGTCCTTCATGTTCGGCGGTCTCGCGAGCGGTGAAACGCGCATCACCGGCCTTCTGGAAGGCGAGGACGTCATCAATACGGGCAAGGCCATGCAGGCCATGGGCGCCAGGATCCGTAAGGAAGGCGACACCTGGATCATCGATGGCGTCGGCAATGGCGGCCTCCTGGCGCCTGAGGCGCCGCTCGATTTCGGCAATGCCGCCACGGGCTGCCGCCTGACCATGGGCCTCGTCGGGGTCTACGATTTCGACAGCACCTTCATCGGCGACGCCTCGCTCACAAAGCGCCCGATGGGCCGCGTGTTGAACCCGCTGCGCGAAATGGGCGTGCAGGTGAAATCGGAAGACGGTGACCGTCTTCCCGTTACCTTG |  |  | glyphosate injury of corn plants [3]: dead or damaged terminal leaves |
| CP4-34: dsRNA trigger, 594-1043 of SEQ ID NO:1 (CP4 EPSPS), a 450 polynucleotide (nucleic acid, listed as Agrobacterium tumefaciens, dsRNA form) DNA: CGATCATACGGAAAAGATGCTGCAGGGCTTTGGCGCCAACCTTACCGTCGAGACGGATGCGGACGGCGTGCGCACCATCCGCCTGGAAGGCCGCGGCAAGCTCACCGGCCAAGTCATCGACGTGCCGGGCGACCCGTCCTCGACGGCCTTCCCGCTGGTTGCGGCCCTGCTTGTTCCGGGCTCCGACGTCACCATCCTCAACGTGCTGATGAACCCCACCCGCACCGGCCTCATCCTGACGCTGCAGGAAATGGGCGCCGACATCGAAGTCATCAACCCGCGCCTTGCCGGCGGCGAAGACGTGGCGGACCTGCGCGTTCGCTCCTCCACGCTGAAGGGCGTCACGGTGCCGGAAGACCGCGCGCCTTCGATGATCGACGAATATCCGATTCTCGCTGTCGCCGCCGCCTTCGCGGAAGGGGCGACCGTGATGAACGGTCTGGAAGAACT |  |  | glyphosate injury of corn plants [3]: dead or damaged terminal leaves |
